Here are results for one compound from patent publication US20250213547A1, “METHODS OF TREATING NEUROLOGICAL DISEASES” (priority 2022, published 2025).

Series [1] can be described thus: Adult DEE patients (Part A/Part B): safety and tolerability. It counts as in vivo, human. The source says:
The third clinical trial was a randomized, double-blind, placebo controlled study. […] After the completion of Part A, 16 patients continued in Part B with open-label treatment for 60 additional days. Patients were included in the trial if they were 18-65 years of age with an established diagnosis of DEE, such as Lennox-Gastaut syndrome, Dravet syndrome, or tuberous sclerosis complex. For enrollment, patients were required to have had at least two bilateral motor seizures per month in the three months prior. In addition, during the 4-week baseline period prior to dosing, patients were required to have incurred at least one bilateral motor seizure. Exclusion criteria included abnormal ECG, degenerative eye disease, or admission to emergency care for treatment of status epilepticus that required mechanical ventilation.
Only patients having at least one bilateral seizure during the baseline study were eligible to continue. […] The range of seizure types included tonic-clonic, drop seizures, tonic, atonic, bilateral clonic, myoclonic-atonic, myotonic-tonic-clonic, and focal seizures. Aside from seizure history, subjects were also enrolled based on an establish diagnosis of DEE, such as Lennox-Gastaut syndrome (LGS) and Dravet syndrome (DS), tuberous sclerosis complex, and a history of special education or an overall intellectual quotient of <70. […] Subjects could continue taking 1-4 anti-seizure medicines (ASM), with the exception of stiripentol, during the study. […]
The safety and tolerability assessments included blood pressure, heart rate, respiratory rate, temperature, treatment-emergent adverse effects, clinical laboratory tests, electrocardiogram data, neurological and ophthalmic examination, and the Columbia-suicide severity rating scale (C-SSRS).
Patients were dosed 100 mg, 200 mg, or 300 mg BID. Dosage (mg BID) in each interval reflects the final dose during that interval. Fields showing 0 mg in days 1-10, 11-20, and 21-30 intervals are patients who were assigned to the placebo group in Part A of the study.

The next series relates to plasma 24HC. Put plainly: Adult DEE patients: pharmacodynamics, plasma 24HC. It is filed as in vivo, human. Conditions: for mean plasma 24HC decrease from baseline: Part A. The procedure: Blood sample collection and analyses for measuring 24HC was performed as previously described in example 5.

For `O=C(c1cccnc1-c1ccncc1)N1CCC(O)(Cc2ccccc2)CC1` [soticlestat], the “Upper respiratory tract infection, n participants” value in series [1] (Part A, soticlestat (n = 14)) was 2 n. Further, in series [1] (Part B open-label, all (n = 16)), the “Upper respiratory tract infection, n participants” value stood at 1 n. Besides, in series [1] (human, in vivo, 30 days), the “Dysarthria, n participants” value is 3 n; the “Fatigue, n participants” value was 2 n; the “Headache, n participants” value is given as 2 n; the “Lethargy, n participants” value is listed as 2 n. The TEAE incidence in series [1] (human, in vivo, 30 days) was found to be 71.4%. Also, the deaths entry in series [1] (soticlestat arm) is “no deaths”. In addition, in the series with plasma 24HC (day 11), the “mean plasma 24HC decrease from baseline” value was found to be 69.76% and the “plasma 24HC mean percent change from baseline” value (shortened to “plasma 24HC mean percent change”) is given as −69.76%. In addition, in the series with plasma 24HC (day 21), the “mean plasma 24HC decrease from baseline” value is on record as 76.88% and the “plasma 24HC mean percent change” value is given as −76.88%. In addition, the “plasma 24HC mean percent change” value with plasma 24HC (day 85) is on record as −80.97%. In addition, in the series with plasma 24HC (end of Part B (day 85)), the “mean percent decrease of plasma 24HC” value is recorded as 80.97%.
